# Experimental data: patent US20090105245A1, “METHODS FOR TREATING MACULAR EDEMA AND OCULAR ANGIOGENESIS USING AN ANTI-INFLAMMATORY AGENT AND A RECEPTOR TYROSINE KINASE INHIBITOR” (priority 2006, published 2009)
# Columns and labels:
# Format in all cases: in vivo
# [1] = system: preretinal neovascularization (NV) in the rat model of oxygen-induced retinopathy; assay: Rat model of oxygen-induced retinopathy (OIR), single intravitreal injection
# Text: METHODS: Pregnant Sprague-Dawley rats were received at 14 days gestation and subsequently gave birth on Day 22±1 of gestation. Immediately following parturition, pups were pooled and randomized into separate litters (n=17 pups/litter), placed into separate shoebox cages inside oxygen delivery chamber, and subjected to an oxygen-exposure profile from Day 0-14 postpartum. Litters were then placed into room air from Day 14/0 through Day 14/6 (days 14-20 postpartum). Additionally on Day 14/0, each pup was randomly assigned as an oxygen-exposed control or into various treatment groups. For those randomized into an injection treatment group: one eye received a 5 μl intravitreal injection of 0.1%, 0.3%, 0.6%, or 1% RTKi and the contralateral eye received a 5 μl intravitreal injection of vehicle. At Day 14/6 (20 days postpartum), all animals in both studies were euthanized.
# (§1) Immediately following euthanasia, retinas from all rat pups were harvested, fixed in 10% neutral buffered formalin for 24 hours, subjected to ADPase staining, and fixed onto slides as whole mounts. Digital images were acquired from each retinal flat mount that was adequately prepared. Computerized image analysis was used to obtain a NV clockhour score from each readable sample. Each clockhour out of 12 total per retina was assessed for the presence or absence of preretinal NV. Statistical comparisons using median scores for NV clockhours from each treatment group were utilized in nonparametric analyses. Each noninjected pup represented one NV score by taking the average value of both eyes and was used in comparisons against each dosage group. Because the pups were randomly assigned and no difference was observed between oxygen-exposed control pups from all litters, the NV scores were combined for all treatment groups. P≦0.05 was considered statistically significant.
# [2] = system: preretinal neovascularization (NV) in the rat OIR model; assay: Rat OIR model, oral gavage
# Experimental: as §1
# METHODS: Pregnant Sprague-Dawley rats were received at 14 days gestation and subsequently gave birth on Day 22±1 of gestation. Immediately following parturition, pups were pooled and randomized into separate litters (n=17 pups/litter), placed into separate shoebox cages inside oxygen delivery chamber, and subjected to an oxygen-exposure profile from Day 0 to Day 14 postpartum. Litters were then placed into room air from Day 14/0 through Day 14/6 (days 14-20 postpartum). Additionally on Day 14/0, each pup was randomly assigned as oxygen-exposed controls, vehicle treated, or drug-treated at 1.5, 5, 10 mg/kg, p.o., BID. At Day 14/6 (20 days postpartum), all animals in both studies were euthanized and retina whole mounts were prepared as described in Example 1 above.
# [3] = system: laser-induced choroidal neovascularization (CNV) in the mouse; assay: Mouse laser-induced choroidal neovascularization (CNV), prevention, intravitreal injection
# Experimental: Methods. CNV was generated by laser-induced rupture of Bruch's membrane. Briefly, 4 to 5 week old male C57BL/6J mice were anesthetized using intraperitoneal administration of ketamine hydrochloride (100 mg/kg) and xylazine (5 mg/kg) and the pupils of both eyes dilated with topical ocular instillation of 1% tropicamide and 2.5% Mydfin®. One drop of topical cellulose (Gonioscopic®) was used to lubricate the cornea. A hand-held cover slip was applied to the cornea and used as a contact lens to aid visualization of the fundus. Three to four retinal burns were placed in randomly assigned eye (right or left eye for each mouse) using the Alcon 532 nm EyeLite laser with a slit lamp delivery system. The laser burns were used to generate a rupture in Bruch's membrane, which was indicated opthalmoscopically by the formation of a bubble under the retina. Only mice with laser burns that produced three bubbles per eye were included in the study. Burns were typically placed at the 3, 6, 9 or 12 o'clock positions in the posterior pole of the retina, avoiding the branch retinal arteries and veins.
# Each mouse was randomly assigned into one of the following treatment groups: noninjected controls, sham-injected controls, vehicle-injected mice, or one of three RTKi-injected groups. […]
# [4] = system: laser-induced choroidal neovascularization (CNV) in the mouse; assay: Mouse laser-induced CNV, prevention paradigm, oral gavage; conditions: for inhibition of CNV: oral, prevention paradigm
# [5] = system: existing laser-induced choroidal neovascularization (CNV) in the mouse; assay: Mouse laser-induced CNV, regression paradigm, oral gavage from day 7; conditions: 3 mg/kg/day, oral from day 7
# [6] = system: VEGF-induced retinal vascular permeability; assay: VEGF-induced retinal vascular permeability in the rat (Evans blue), intravitreal injection; conditions: 10 μl intravitreal
# Experimental: METHODS: Adult Sprague-Dawley rats were anesthetized with intramuscular ketamine/xylazine and their pupils dilated with topical cycloplegics. Rats were randomly assigned to intravitreal injection groups of 0% 0.3%, 1.0%, and 3.0% RTKI and a positive control. Ten μl of each compound was intravitreally injected in each treatment eye (n=6 eyes per group). Three days following first intravitreal injection, all animals received an intravitreal injection of 10 μl 1400 ng hr VEGF in both eyes. Twenty-four hours post-injection of VEGF, intravenous infusion of 3% Evans blue dye was performed in all animals, where 50 mg/kg of Evans blue dye was injected via the lateral tail vein during general anesthesia. After the dye had circulated for 90 minutes, the rats were euthanized. The rats were then systemically perfused with balanced salt solution, and then both eyes of each rat were immediately enucleated and the retinas harvested using a surgical microscope. After measurement of the retinal wet weight, the Evans blue dye was extracted by placing the retina in a 0.2 ml formamide (Sigma) and then the homogenized and ultracentrifuged. Blood samples were centrifuged and the plasma diluted 100 fold in formamide. For both retina and plasma samples, 60 μl of supernatant was used to measure the Evans blue dye absorbance (ABS) with at 620/740 nm. The blood-retinal barrier breakdown and subsequent retinal vascular permeability as measured by dye absorbance were calculated as means ±s.e.m. of net ABS/wet weight/plasma ABS. A two-tailed Student's t-test were used for pair wise comparisons between OS and OD eyes in each group. One way ANOVA was used to determine an overall difference between treatment means, where P≦0.05 was considered significant.
smiles,measurement,setting,value
"Cc1ccc(F)c(NC(=O)Nc2ccc(-c3cccc4[nH]nc(N)c34)cc2)c1 [Compound 86, N-[4-[3-amino-1H-indazol-4-yl]phenyl]-N′-(2-fluoro-5-methylphenyl)urea]",efficacy against preretinal NV,[1]; 0.1% treated eyes,Efficacy was not observed
same,inhibition of preretinal NV vs vehicle-injected and control noninjected eyes,[1]; 0.3-1% RTKi,significant inhibition of preretinal NV
same,inhibition of preretinal neovascularization (NV),"[1]; single intravitreal injection, rat OIR (FIG. 1)",inhibits preretinal neovascularization (NV)
same,decrease in NV,[2]; 3 mg/kg/day p.o.,did not have a significant decrease in NV
same,inhibition of preretinal NV vs vehicle-treated pups,[2]; 10 mg/kg/day p.o.,significant inhibition of preretinal NV
same,inhibition of preretinal NV,[2]; 20 mg/kg/day p.o.,complete inhibition of preretinal NV
same,prevention of preretinal neovascularization (NV),"[2]; oral gavage, rat OIR (FIG. 2)",prevents preretinal neoavascularization (NV)
same,CNV vs vehicle injected eyes,"[3]; 0.3% RTKi, 5 ul intravitreal (P=0.082)",marginal statistical difference
same,inhibition of laser-induced CNV,"[3]; single intravitreal injection, mouse (FIG. 3)",inhibits laser-induced choroidal neovascularization (CNV)
same,inhibition of CNV,[4]; 3 mg/kg/day,no significant inhibition
same,inhibition of CNV,[4]; 20 mg/kg/d,complete inhibition of CNV
same,inhibition of laser-induced CNV,"[4]; oral gavage, mouse (FIG. 6)",inhibits laser-induced choroidal neovascularization (CNV)
same,regression of existing CNV,[5],did not show a significant regression of existing CNV
same,decrease of retinal vascular permeability vs vehicle-injected eyes,[6]; 0.3% RTKi,50%
same,decrease of retinal vascular permeability vs vehicle-injected eyes,[6]; 1.0% RTKi,61%
same,decrease of retinal vascular permeability vs vehicle-injected eyes,[6]; 3% RTKi,53%
